According to ChEMBL document CHEMBL4004849, “Tetrazolylmethyl quinolines: Design, docking studies, synthesis, anticancer and antifungal analyses” (2017):
≈ marks a conversion by molar mass, not a printed value. Calls of active or inactive are those of the source. No cut-off for these calls is given here.

Key:
Type in all cases: functional
T47D = assay: Growth inhibition of human T47D cells at 10^-5 M incubated for 48 hrs by sulforhodamine B assay relative to control
786-0 = assay: Growth inhibition of human 786-0 cells at 10^-5 M incubated for 48 hrs by sulforhodamine B assay relative to control
DU-145 = assay: Growth inhibition of human DU145 cells at 10^-5 M incubated for 48 hrs by sulforhodamine B assay relative to control
SNB-75 = assay: Growth inhibition of human SNB75 cells at 10^-5 M incubated for 48 hrs by sulforhodamine B assay relative to control
HL-60(TB) = assay: Growth inhibition of human HL-60(TB) cells at 10^-5 M incubated for 48 hrs by sulforhodamine B assay relative to control
SN12C = assay: Growth inhibition of human SN12C cells at 10^-5 M incubated for 48 hrs by sulforhodamine B assay relative to control
HCT-15 = assay: Growth inhibition of human HCT15 cells at 10^-5 M incubated for 48 hrs by sulforhodamine B assay relative to control
EKVX = assay: Growth inhibition of human EKVX cells at 10^-5 M incubated for 48 hrs by sulforhodamine B assay relative to control
Candida albicans = assay: Antifungal activity against Candida albicans after 24 hrs by serial dilution method
NCI/ADR-RES = assay: Growth inhibition of human NCI-ADR-RES cells at 10^-5 M incubated for 48 hrs by sulforhodamine B assay relative to control
TK-10 = assay: Growth inhibition of human TK10 cells at 10^-5 M incubated for 48 hrs by sulforhodamine B assay relative to control
LOX IMVI = assay: Growth inhibition of human LOXIMVI cells at 10^-5 M incubated for 48 hrs by sulforhodamine B assay relative to control
SK-MEL-2 = assay: Growth inhibition of human SK-MEL-2 cells at 10^-5 M incubated for 48 hrs by sulforhodamine B assay relative to control

Structure (SMILES) | growth inhibition (GI) (T47D) | growth inhibition (GI) (786-0) | growth inhibition (GI) (DU-145) | growth inhibition (GI) (SNB-75) | growth inhibition (GI) (HL-60(TB)) | growth inhibition (GI) (SN12C) | growth inhibition (GI) (HCT-15) | growth inhibition (GI) (EKVX) | MIC (Candida albicans) | growth inhibition (GI) (NCI/ADR-RES) | growth inhibition (GI) (TK-10) | growth inhibition (GI) (LOX IMVI) | growth inhibition (GI) (SK-MEL-2) | also measured
Clc1nc2ccc(Br)cc2cc1Cn1nnnc1Cc1ccccc1 | Active | Active | Active | Active | Active | Active | Active | Active | 10 µg/mL (≈ 24.1 µM) | Active | Active | Active | Active | –
COc1ccc2nc(Cl)c(Cn3nnc(Cc4ccccc4)n3)cc2c1 | – | – | – | – | – | – | – | – | 10 µg/mL (≈ 27.3 µM) | – | – | – | – | inhibition of growth at 10 µM (T47D; read-out: GI): 97.6%; inhibition of growth at 10 µM (786-0; 786-0, 48 h, read-out: GI): 52.5%; inhibition of growth at 10 µM (DU-145; DU-145, 48 h, read-out: GI): 38.4%; inhibition of growth at 10 µM (SNB-75; SNB-75, 48 h, read-out: GI): 42.9%; inhibition of growth at 10 µM (HL-60(TB); HL-60, 48 h, read-out: GI): 43.4%; inhibition of growth at 10 µM (SN12C; read-out: GI): 42.7%; inhibition of growth at 10 µM (HCT-15; HCT-15, 48 h, read-out: GI): 63.5%; inhibition of growth at 10 µM (EKVX; read-out: GI): 75.5%; inhibition of growth at 10 µM (NCI/ADR-RES; read-out: GI): 79.9%; inhibition of growth at 10 µM (TK-10; TK-10, 48 h, read-out: GI): 65.1%; inhibition of growth at 10 µM (LOX IMVI; read-out: GI): 57.1%; inhibition of growth at 10 µM (SK-MEL-2; SK-MEL-2, 48 h, read-out: GI): 50.4%
Clc1nc2ccccc2cc1Cn1nnnc1CSc1ccccc1 | Active | Active | Active | Active | Active | Active | Active | Active | 10 µg/mL (≈ 27.2 µM) | Active | Active | Active | Active | –
COc1ccc2nc(Cl)c(Cn3nnnc3CSc3ccccc3)cc2c1 | Active | Active | Active | Active | Active | Active | Active | Active | 25 µg/mL (≈ 62.8 µM) | Active | Active | Active | Active | –
Clc1nc2ccccc2cc1Cn1nnnc1Cc1ccccc1 | Active | Active | Active | Active | Active | Active | Active | Active | 25 µg/mL (≈ 74.4 µM) | Active | Active | Active | Active | –
